{"source": "patent US12157730B2", "about": "“Heteroaryl derivative, method for producing same, and pharmaceutical composition comprising same as effective component” (VORONOI INC., priority 2019, dated 2024)"}
{"target": "T1, Ba/F3 cell EGFR Exon20 ins NPH (Homo sapiens, UniProt P00533, INS773NPH)", "T1 construct": "expressed in transfected cells; host or cells: Ba/F3", "assay": "Ba/F3 cell proliferation suppression, EGFR Exon20 ins NPH", "assay_type": "cell-based", "conditions": "GI50 class; Ba/F3 cell line with NPH inserted at Exon20 of EGFR; 72 hours", "procedure,_shortened": "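After 72 h compound exposure (twelve 3-fold steps, 0.3 nM–50 um final), live cells were measured by CellTiter-Glo luminescence and growth expressed as % of control to derive GI50. Cells were seeded at 3000–5000 per well a day earlier; Ba/F3 medium contained IL-3; three repeats.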"}
{"compound": "N-(5-((6-((R)-3-(3,4- difluorophenyl) isoxazolidine-2-yl) pyrimidine-4-yl)amino)- 2-(4-((S)-3- (dimethylamino) pyrolidine-1-yl) piperidine-1-yl)-4- methoxyphenyl) acrylamide [compound 500]", "Ba/F3 (NPH) Activity": "A (GI50 < 50 nM)"}
{"compound": "C=CC(=O)Nc1cc(Nc2cc(N3OCC[C@@H]3c3ccc4ccccc4c3)ncn2)c(OC)cc1N1CCC(N2C[C@@H]3C[C@H]2CO3)CC1", "note": "[compound 512, N-(2-(4-((1S,4S)-2-oxa-5-azabicyclo[2.2.1]heptane-5-yl)piperidine-1-yl)-4-methoxy-5-((6-((R)-3-(naphthalene-2-yl)isoxazolidine-2-yl)pyrimidine-4-yl)amino)phenyl)acrylamide]", "Ba/F3 (NPH) Activity": "A (GI50 < 50 nM)"}
{"compound": "C=CC(=O)Nc1cc(Nc2cc(N3OCC[C@@H]3c3ccc(F)c(Cl)c3)ncn2)c(OC)cc1N1CCC(N2CCN(C)CC2)CC1", "note": "[compound 719, N-(5-((6-((R)-3-(3-chloro-4-fluorophenyl)isoxazolidine-2-yl)pyrimidine-4-yl)amino)-4-methoxy-2-(4-(4-methylpiperazine-1-yl)piperidine-1-yl)phenyl) acrylamide]", "Ba/F3 (NPH) Activity": "A (GI50 < 50 nM)"}
{"compound": "C=CC(=O)Nc1cc(Nc2cc(N3OCC[C@@H]3c3c(F)ccc(F)c3F)ncn2)c(OC)cc1N1CCC(N2CCN(C3CCC3)CC2)CC1", "note": "[Example 194, N-(2-(4-(4-cyclobutylpiperazine-1-yl)piperidine-1-yl)-4-methoxy-5-((6-((R)-3-(2,3,6-trifluorophenyl)isoxazolidine-2-yl)pyrimidine-4-yl)amino)phenyl)acrylamide]", "Ba/F3 (NPH) Activity": "A (GI50 < 50 nM)"}
{"compound": "C=CC(=O)Nc1cc(Nc2cc(N3OCC[C@@H]3c3ccc(Cl)cc3F)ncn2)c(OC)cc1N1CCC(N2CC[C@H](N(C)C)C2)CC1", "note": "[compound 405, N-(5-((6-((R)-3-(4-chloro-2-fluorophenyl)isoxazolidine-2-yl)pyrimidine-4-yl)amino)-2-(4-((S)-3-(dimethylamino)pyrolidine-1-yl)piperidine-1-yl)-4-methoxyphenyl) acrylamide]", "Ba/F3 (NPH) Activity": "B (50 nM ≤ GI50 < 500 nM)"}
{"compound": "C=CC(=O)Nc1cc(Nc2cc(N3OCC[C@@H]3c3ccc(F)c(Cl)c3)ncn2)c(OC)cc1N1CCC(N2CCO[C@H](C)C2)CC1", "note": "[compound 874, N-(5-((6-((R)-3-(3-chloro-4-fluorophenyl)isoxazolidine-2-yl)pyrimidine-4-yl)amino)-4-methoxy-2-(4-((R)-2-methylmorpholino)piperidine-1-yl)phenyl) acrylamide]", "Ba/F3 (NPH) Activity": "A (GI50 < 50 nM)"}
{"compound": "C=CC(=O)Nc1cc(Nc2cc(N3OCC[C@@H]3c3cc(F)ccc3F)ncn2)c(OC)cc1N1CCN(C2CC2)C[C@H]1C", "note": "[compound 880, N-(2-((R)-4-cyclopropyl-2-methylpiperazine-1-yl)-5-((6-((R)-3-(2,5-difluorophenyl)isoxazolidine-2-yl)pyrimidine-4-yl)amino)-4-methoxyphenyl) acrylamide]", "Ba/F3 (NPH) Activity": "A (GI50 < 50 nM)"}
{"compound": "C=CC(=O)Nc1cc(Nc2cc(N3OCC[C@@H]3c3cccc(Cl)c3)ncn2)c(OC)cc1N1CCC(N2CCC(N(C)C)CC2)CC1", "note": "[compound 414, N-(5-((6-((R)-3-(3-chlorophenyl)isoxazolidine-2-yl)pyrimidine-4-yl)amino)-2-(4-(dimethylamino)-[1,4'-bipiperidine]-1'-yl)-4-methoxyphenyl) acrylamide]", "Ba/F3 (NPH) Activity": "A (GI50 < 50 nM)"}
{"compound": "C=CC(=O)Nc1cc(Nc2cc(N3OCC[C@@H]3c3cc(F)cc(F)c3)ncn2)c(OCC)cc1N1CCC(N2CCN(C3CC3)CC2)CC1", "note": "[Example 116, N-(2-(4-(4-cyclopropylpiperazine-1-yl)piperidine-1-yl)-5-((6-((R)-3-(3,5-difluorophenyl)isoxazolidine-2-yl)pyrimidine-4-yl)amino)-4-ethoxyphenyl) acrylamide]", "Ba/F3 (NPH) Activity": "C (500 nM ≤ GI50 < 5000 nM)"}
{"compound": "C=CC(=O)Nc1cc(Nc2cc(N3OCC[C@@H]3Cc3cccc(Cl)c3Cl)ncn2)c(OC)cc1N1CCN(CC)CC1", "note": "[compound 1008, N-(5-((6-((S)-3-(2,3-dichlorobenzyl)isoxazolidine-2-yl)pyrimidine-4-yl)amino)-2-(4-ethylpiperazine-1-yl)-4-methoxyphenyl) acrylamide]", "Ba/F3 (NPH) Activity": "A (GI50 < 50 nM)"}
{"compound": "C=CC(=O)Nc1cc(Nc2cc(N3OCC[C@@H]3Cc3cc(F)cc(F)c3)ncn2)c(OC)cc1N(C)CCN(C)C", "note": "[compound 1031, N-(5-((6-((S)-3-(3,5-difluorobenzyl)isoxazolidine-2-yl)pyrimidine-4-yl)amino)-2-((2-(dimethylamino)ethyl)(methyl)amino)-4-methoxyphenyl) acrylamide]", "Ba/F3 (NPH) Activity": "A (GI50 < 50 nM)"}
{"compound": "C=CC(=O)Nc1cc(Nc2cc(N3OCC[C@@H]3c3ccc(C)nc3)ncn2)c(OC)cc1N1CCN(C)CC1", "note": "[Example 44, N-(4-methoxy-2-(4-methylpiperazine-1-yl)-5-((6-((R)-3-(6-methylpyridine-3-yl)isoxazolidine-2-yl)pyrimidine-4-yl)amino)phenyl) acrylamide]", "Ba/F3 (NPH) Activity": "B (50 nM ≤ GI50 < 500 nM)"}
{"compound": "C=CC(=O)Nc1cc(Nc2cc(N3OCC[C@@H]3c3cc(F)ccc3F)ncn2)c(OC)cc1N1CCC(N2CCN(CC)CC2)CC1", "note": "[compound 767, N-(5-((6-((R)-3-(2,5-difluorophenyl)isoxazolidine-2-yl)pyrimidine-4-yl)amino)-2-(4-(4-ethylpiperazine-1-yl)piperidine-1-yl)-4-methoxyphenyl) acrylamide]", "Ba/F3 (NPH) Activity": "A (GI50 < 50 nM)"}
{"compound": "C=CC(=O)Nc1cc(Nc2cc(N3OCC[C@@H]3c3cccc(F)c3Cl)ncn2)c(OC)cc1N1CCC(N2CCN(C3CC3)C[C@H]2C)CC1", "note": "[Example 143, N-(5-((6-((R)-3-(2-chloro-3-fluorophenyl)isoxazolidine-2-yl)pyrimidine-4-yl)amino)-2-(4-((R)-4-cyclopropyl-2-methylpiperazine-1-yl)piperidine-1-yl)-4-methoxyphenyl) acrylamide]", "Ba/F3 (NPH) Activity": "A (GI50 < 50 nM)"}
{"compound": "C=CC(=O)Nc1cc(Nc2cc(N3OCC[C@@H]3c3cccc(OC)c3)ncn2)c(OC)cc1N1CCC(N2CCN(C(C)=O)CC2)CC1", "note": "[compound 779, N-(2-(4-(4-acetylpiperazine-1-yl)piperidine-1-yl)-4-methoxy-5-((6-((R)-3-(3-methoxyphenyl)isoxazolidine-2-yl)pyrimidine-4-yl)amino)phenyl)acrylamide]", "Ba/F3 (NPH) Activity": "A (GI50 < 50 nM)"}
{"compound": "C=CC(=O)Nc1cc(Nc2cc(N3OCC[C@@H]3c3cc(F)cc(F)c3)ncn2)c(OC)cc1N1CCC(N2CCN(CCN(C)C)CC2)CC1", "note": "[compound 753, N-(5-((6-((R)-3-(3,5-difluorophenyl)isoxazolidine-2-yl)pyrimidine-4-yl)amino)-2-(4-(4-(2-(dimethylamino)ethyl)piperazine-1-yl)piperidine-1-yl)-4-methoxyphenyl) acrylamide]", "Ba/F3 (NPH) Activity": "A (GI50 < 50 nM)"}
{"compound": "C=CC(=O)Nc1cc(Nc2cc(N3OCC[C@@H]3c3cccs3)ncn2)c(OC)cc1N(C)CCN(C)C", "note": "[compound 928, N-(2-((2-(dimethylamino)ethyl) (methyl)amino)-4-methoxy-5-((6-((R)-3-(thiophene-2-yl)isoxazolidine-2-yl)pyrimidine-4-yl)amino)phenyl)acrylamide]", "Ba/F3 (NPH) Activity": "A (GI50 < 50 nM)"}
{"compound": "COc1cc(N2CCOCC2)c(NC(=O)/C=C/CN(C)C)cc1Nc1cc(N2OCC[C@@H]2c2cc(F)cc(F)c2)ncn1", "note": "[compound 397, N-(5-((6-((R)-3-(3,5-difluorophenyl)isoxazolidine-2-yl)pyrimidine-4-yl)amino)-4-methoxy-2-morpholinophenyl)-(E)-4-(dimethylamino)but-2-enamide]", "Ba/F3 (NPH) Activity": "A (GI50 < 50 nM)"}
{"compound": "C#Cc1cccc([C@H]2CCON2c2cc(Nc3cc(NC(=O)C=C)c(N4CCC(N5C[C@H]6C[C@@H]5CO6)CC4)cc3OC)ncn2)c1", "note": "[compound 619, N-(2-(4-((1R,4R)-2-oxa-5-azabicyclo [2.2.1]heptane-5-yl)piperidine-1-yl)-5-((6-((R)-3-(3-ethynylphenyl)isoxazolidine-2-yl)pyrimidine-4-yl)amino)-4-methoxyphenyl) acrylamide]", "Ba/F3 (NPH) Activity": "A (GI50 < 50 nM)"}
{"compound": "C=CC(=O)Nc1cc(Nc2cc(N3OCC[C@@H]3c3ccc4ccccc4c3)ncn2)c(OC)cc1N(C)CCN(C)C", "note": "[compound 511, N-(2-((2-(dimethylamino)ethyl)(methyl)amino)-4-methoxy-5-((6-((R)-3-(naphthalene-2-yl)isoxazolidine-2-yl)pyrimidine-4-yl)amino)phenyl)acrylamide]", "Ba/F3 (NPH) Activity": "A (GI50 < 50 nM)"}
{"compound": "C=CC(=O)Nc1cc(Nc2cc(N3OCC[C@@H]3c3cc(F)ccc3F)ncn2)c(OC)cc1N1CCC(N2C[C@@H](C)N(C3CC3)C[C@H]2C)CC1", "note": "[Example 172, N-(2-(4-((2R,5R)-4-cyclopropyl-2,5-dimethylpiperazine-1-yl)piperidine-1-yl)-5-((6-((R)-3-(2,5-difluorophenyl)isoxazolidine-2-yl)pyrimidine-4-yl)amino)-4-methoxypheny) acrylamide]", "Ba/F3 (NPH) Activity": "A (GI50 < 50 nM)"}
{"compound": "C=CC(=O)Nc1cc(Nc2cc(N3OCC[C@@H]3c3ccc(C)nc3)ncn2)c(OC)cc1N(C)CCOC", "note": "[Example 223, N-(4-methoxy-2-((2-methoxyethyl) (methyl)amino)-5-((6-((R)-3-(6-methylpyridine-3-yl)isoxazolidine-2-yl)pyrimidine-4-yl)amino)phenyl)acrylamide]", "Ba/F3 (NPH) Activity": "B (50 nM ≤ GI50 < 500 nM)"}
{"compound": "C=CC(=O)Nc1cc(Nc2cc(N3OCC[C@@H]3c3cccc(F)c3)ncn2)c(OC)cc1N1CC[C@H](N(C)C)C1", "note": "[compound 839, N-(2-((S)-3-(dimethylamino)pyrolidine-1-yl)-5-((6-((R)-3-(3-fluorophenyl)isoxazolidine-2-yl)pyrimidine-4-yl)amino)-4-methoxyphenyl) acrylamide]", "Ba/F3 (NPH) Activity": "A (GI50 < 50 nM)"}
